According to patent US8183388B2, “Androgen receptor modulator and uses thereof” (Eli Lilly and Company, priority 2009, dated 2012):
Read-outs that look alike come from different tables or passages of the source.

What was measured:
[1] = molecular target: T1, human GR (glucocorticoid receptor) (Homo sapiens, UniProt P04150); assay: Steroid hormone nuclear receptor binding assay, GR; conditions: HEK293 lysate overexpressing human GR, [3H]-dexamethasone
T1 construct: expressed in transfected cells; host or cells: HEK293 (lysate, 293-GR)
T1 sequence (P04150 1-777): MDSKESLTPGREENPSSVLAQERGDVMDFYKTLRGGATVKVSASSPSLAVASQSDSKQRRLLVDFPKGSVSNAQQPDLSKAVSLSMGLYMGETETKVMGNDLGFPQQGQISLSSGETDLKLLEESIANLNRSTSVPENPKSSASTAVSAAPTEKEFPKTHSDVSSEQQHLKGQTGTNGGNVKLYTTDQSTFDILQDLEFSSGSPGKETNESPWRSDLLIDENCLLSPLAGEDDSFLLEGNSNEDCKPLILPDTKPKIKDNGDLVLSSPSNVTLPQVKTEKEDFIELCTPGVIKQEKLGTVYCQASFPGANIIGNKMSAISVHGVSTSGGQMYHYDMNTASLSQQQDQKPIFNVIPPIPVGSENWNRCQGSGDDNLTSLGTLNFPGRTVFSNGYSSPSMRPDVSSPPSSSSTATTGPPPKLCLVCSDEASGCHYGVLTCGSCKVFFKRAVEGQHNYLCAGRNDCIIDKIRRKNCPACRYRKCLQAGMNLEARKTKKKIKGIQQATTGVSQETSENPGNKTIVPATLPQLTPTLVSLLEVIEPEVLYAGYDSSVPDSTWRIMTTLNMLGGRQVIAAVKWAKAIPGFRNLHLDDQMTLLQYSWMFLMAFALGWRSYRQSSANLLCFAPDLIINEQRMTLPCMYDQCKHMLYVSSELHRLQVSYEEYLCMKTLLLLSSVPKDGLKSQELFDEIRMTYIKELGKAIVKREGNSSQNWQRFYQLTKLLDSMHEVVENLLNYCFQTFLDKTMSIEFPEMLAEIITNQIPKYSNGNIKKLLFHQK
Protocol: Cell lysates from human embryonic kidney HEK293 cells overexpressing human MR (mineralocorticoid receptor), GR (glucocorticoid receptor), AR (androgen receptor), or PR (progesterone receptor) are used for receptor-ligand competition binding assays to determine Ki values. Typical procedures are provided below
Briefly, steroid receptor competition binding assays are run in a buffer containing 20 mM HEPES buffer (pH=7.6), 0.2 mM EDTA, 75 mM NaCl, 1.5 mM MgCl2, 20% glycerol, 20 mM sodium molybdate, 0.2 mM DTT (dithiothreitol), 20 μg/mL aprotinin and 20 μg/mL leupeptin (assay buffer). Typically, steroid receptor binding assays include radio-labeled ligands, such as 0.25 nM [^3H]-aldosterone for MR binding, 0.3 nM [^3H]-dexamethasone for GR binding, 0.36 nM [^3H]-methyltrienolone for AR binding, and 0.29 nM [^3H]-methyltrienolone for PR binding, and either 20 μg 293-MR lysate, 20 μg 293-GR lysate, 22 μg 293-AR lysate, or 40 μg 293-PR lysate per well. Assays are typically run in 96-well format. Competing test compounds are added at various concentrations ranging from about 0.01 nM to 10 μM. Non-specific binding is determined in the presence of 500 nM aldosterone for MR binding, 500 nM dexamethasone for GR binding, or 500 nM methyltrienolone for AR and PR binding. […] After an incubation of 2 hours, plates are read in a Wallac Microbeta counter. […]

[2] = Determination of plasma exposure; assay type: in vivo; conditions: Sprague Dawley, rat, male rats, read-out: AUC (area under the plasma concentration time curve)
Protocol: Groups of male Sprague Dawley rats (6 animals/group) are dosed either orally (dosing volume of 1.25 ml/kg; vehicle of 5% DMSO/95% HEC) or subcutaneously (dosing volume of 2.5 ml/kg; vehicle of 5% DMSO/95% soybean oil) with 10 mg/kg p.o, 1 mg/kg s.c., 3 mg/kg s.c., or 10 mg/kg s.c. of the compound of Formula (I), once per day for two weeks. Starting on the second to last day of dosing, plasma samples are collected at 0.5, 2, 4, or 24 hours post-dosing (two animals are sampled at each time-point, with the same animals being used for the 0.5 and 24 hour time-point samples). The plasma concentration of the compound of Formula (I) is determined for each collected sample using LC/MS/MS (Sciex API-4000 LC/MS/MS system). The resulting concentrations are used to construct an area under the plasma concentration time curve (AUC) for each administered dose as an index of exposure. Following a protocol essentially as described above, the administered doses of the compound of Formula (I) produced the following AUC values: 10 mg/kg p.o: about 295,511 ng·hr./ml.; 1 mg/kg s.c.: about 38,963 ng·hr./ml.; 3 mg/kg s.c.: about 137,056 ng·hr./ml.; and 10 mg/kg s.c.: about 218,537 ng·hr./ml.

Q: Which results are given for `CC(C)OC(=O)N[C@H]1Cc2c(n(C[C@H]3OCC[C@@H]3O)c3ccc(C#N)cc23)C1` [compound of Formula (I), [(S)-7-Cyano-4-((2R,3S)-3-hydroxytetrahydrofuran-2-ylmethyl)-1,2,3,4-tetrahydrocyclopenta[b]indol-2-yl]-carbamic acid isopropyl ester]?
A: Ki [1]: > 2000 nM; AUC ([2]; po, 10 mg/kg p.o. once per day for two weeks, 5% DMSO/95% HEC): ~296 µg·h/mL; AUC ([2]; sc, 1 mg/kg s.c. once per day for two weeks, 5% DMSO/95% soybean oil): ~39 µg·h/mL; AUC ([2]; sc, 3 mg/kg s.c. once per day for two weeks, 5% DMSO/95% soybean oil): ~137 µg·h/mL; AUC ([2]; sc, 10 mg/kg s.c. once per day for two weeks, 5% DMSO/95% soybean oil): ~219 µg·h/mL
